Measured values taken from PubChem BioAssay AID256 (DTP/NCI, 2004).
Toxic doses and inconclusive results are not listed. Rule for the calls: active = survival T/C of 150% or more; inactive = T/C below 125% in these data. Non-standard residues stand in square brackets, D forms with d. Residues, ends and D or L forms follow the SMILES beside them. ξ: configuration not given here. *: point of attachment. ξW = NC(Cc1c[nH]c2ccccc12)C(=O)O; Cbz = O=C(OCc1ccccc1)*

Test system: CD2F1 mice, L1210 leukemia ip, survival T/C
Experiment: NCI In Vivo Anticancer Drug Screen. Data for tumor model L1210 Leukemia (intraperitoneal) in CD2F1 (CDF1) mice
Settings: higher = longer survival
In short: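 Antitumor effect is scored in animals hosting a serially transplanted tumor. Values compare compound-dosed animals against vehicle-only controls as a simple quotient.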

[1] = endpoint: mean survival time, dose: 100.0 mg/kg/injection, schedule: Q01DX009 (ip), vehicle: saline with Tween-80
[2] = endpoint: mean survival time, dose: 100.0 mg/kg/injection, schedule: Q04DX003 (ip), vehicle: saline with Tween-80
[3] = endpoint: mean survival time, dose: 200.0 mg/kg/injection, schedule: Q01DX009 (ip), vehicle: saline with Tween-80
[4] = endpoint: mean survival time, dose: 200.0 mg/kg/injection, schedule: Q04DX003 (ip), vehicle: saline with Tween-80
[5] = endpoint: mean survival time, dose: 400.0 mg/kg/injection, schedule: Q01DX009 (ip), vehicle: saline with Tween-80
[6] = endpoint: mean survival time, dose: 400.0 mg/kg/injection, schedule: Q04DX003 (ip), vehicle: saline with Tween-80
[7] = endpoint: mean survival time, dose: 12.5 mg/kg/injection, schedule: Q01DX009 (ip), vehicle: saline with Tween-80
[8] = endpoint: mean survival time, dose: 25.0 mg/kg/injection, schedule: Q01DX009 (ip), vehicle: saline with Tween-80
[9] = endpoint: mean survival time, dose: 50.0 mg/kg/injection, schedule: Q01DX009 (ip), vehicle: saline with Tween-80

Measured: T/C

NC(=O)CNC(=O)C(Cc1c[nH]c2ccccc12)NC(=O)OCc1ccccc1 (stereo unspecified) (Cbz-[ξW]-Gly-NH2)
inactive: endpoint: mean survival time, dose: 75.0 mg/kg/injection, schedule: Q04DX003 (ip), vehicle: saline 93 % of control | endpoint: mean survival time, dose: 150.0 mg/kg/injection, schedule: Q04DX003 (ip), vehicle: saline 97 % of control | endpoint: mean survival time, dose: 300.0 mg/kg/injection, schedule: Q04DX003 (ip), vehicle: saline 98 % of control

Cc1ccc(S(=O)(=O)N2CCn3ncc(C#N)c32)cc1
inactive: endpoint: mean survival time, dose: 12.5 mg/kg/injection, schedule: Q01DX009 (ip), vehicle: Klucel (hydroxypropylcellulose) (HPC) 98 % of control | endpoint: mean survival time, dose: 25.0 mg/kg/injection, schedule: Q01DX009 (ip), vehicle: Klucel (hydroxypropylcellulose) (HPC) 95 % of control | endpoint: mean survival time, dose: 50.0 mg/kg/injection, schedule: Q01DX009 (ip), vehicle: Klucel (hydroxypropylcellulose) (HPC) 97 % of control | endpoint: mean survival time, dose: 100.0 mg/kg/injection, schedule: Q01DX009 (ip), vehicle: Klucel (hydroxypropylcellulose) (HPC) 87 % of control | endpoint: mean survival time, dose: 200.0 mg/kg/injection, schedule: Q01DX009 (ip), vehicle: Klucel (hydroxypropylcellulose) (HPC) 89 % of control | endpoint: mean survival time, dose: 400.0 mg/kg/injection, schedule: Q01DX009 (ip), vehicle: Klucel (hydroxypropylcellulose) (HPC) 95 % of control

CCCC(CCC)NCCO
inactive: endpoint: mean survival time, dose: 75.0 mg/kg/injection, schedule: Q01DX001 (ip), vehicle: saline 98 % of control | endpoint: mean survival time, dose: 150.0 mg/kg/injection, schedule: Q01DX001 (ip), vehicle: saline 96 % of control

COc1ccc(C(=O)O)c(N)c1
inactive: [1] 95 % of control | [2] 94 % of control | [3] 92 % of control | [4] 97 % of control | [5] 101 % of control | [6] 97 % of control

CCC(CNCCCCCC(=O)O)(C(=O)O)C(=O)O
inactive: endpoint: mean survival time, dose: 12.5 mg/kg/injection, schedule: Q04DX002 (ip), vehicle: saline with Tween-80 90 % of control | endpoint: mean survival time, dose: 25.0 mg/kg/injection, schedule: Q04DX002 (ip), vehicle: saline with Tween-80 98 % of control | endpoint: mean survival time, dose: 50.0 mg/kg/injection, schedule: Q04DX002 (ip), vehicle: saline with Tween-80 94 % of control

CCC12C(=O)C(CC)(C3=C1c1cccc4cccc3c14)C1C(=O)OC(=O)C12 (stereo unspecified)
inactive: [2] 97 % of control | [4] 97 % of control | [6] 97 % of control

NC(CS(=O)c1ccc(Cl)cc1)C(=O)O (stereo unspecified)
inactive: endpoint: mean survival time, dose: 6.25 mg/kg/injection, schedule: Q01DX009 (ip), vehicle: saline with Tween-80 90 % of control | [7] 94 % of control | [8] 96 % of control

O=C1C=C(NS(=O)(=O)c2ccccc2)C(=O)c2ccccc21
inactive: [1] 101 % of control | [2] 101 % of control | [3] 97 % of control | [4] 95 % of control | [5] 97 % of control | [6] 89 % of control

O=C1C=CC2OC(c3ccccc3)C(O)C2O1 (stereo unspecified)
inactive: endpoint: median survival time, dose: 3.12 mg/kg/injection, schedule: Q01DX005 (ip), vehicle: DMSO 111 % of control | endpoint: median survival time, dose: 6.25 mg/kg/injection, schedule: Q01DX005 (ip), vehicle: DMSO 101 % of control | endpoint: median survival time, dose: 12.5 mg/kg/injection, schedule: Q01DX005 (ip), vehicle: DMSO 112 % of control | endpoint: median survival time, dose: 25.0 mg/kg/injection, schedule: Q01DX005 (ip), vehicle: DMSO 115 % of control | endpoint: median survival time, dose: 50.0 mg/kg/injection, schedule: Q01DX005 (ip), vehicle: DMSO 87 % of control

C=CCc1ccc(OC(=O)Nc2ccc(C)c([N+](=O)[O-])c2)c(OC)c1
inactive: [7] 98 % of control | [8] 103 % of control | [9] 98 % of control | [3] 88 % of control

CCCC/C=C/C(C)O (stereo unspecified)
inactive: [9] 100 % of control | [1] 100 % of control | [2] 98 % of control | [3] 95 % of control | [4] 103 % of control | [6] 103 % of control

CC(C(=O)O)C1(O)CCCCC1 (stereo unspecified)
inactive: endpoint: mean survival time, dose: 5.0 mg/kg/injection, schedule: Q01DX009 (ip), vehicle: saline with Tween-80 101 % of control | endpoint: mean survival time, dose: 10.0 mg/kg/injection, schedule: Q01DX009 (ip), vehicle: saline with Tween-80 95 % of control | endpoint: mean survival time, dose: 20.0 mg/kg/injection, schedule: Q01DX009 (ip), vehicle: saline with Tween-80 90 % of control

O=S(=O)(Cc1ccccc1)Cc1ccccc1
inactive: [1] 101 % of control | [2] 103 % of control | [3] 98 % of control | [4] 103 % of control | [5] 96 % of control | [6] 102 % of control
